Test results: ChEMBL document CHEMBL3045033, “Synthesis of new potential anticancer agents based on 4-thiazolidinone and oleanane scaffolds” (Med Chem Res, 2012)
Where “and” joins values, the source holds several entries; their conditions need not be identical. Equal entries are not always repeated.

Tests used:
Format in all cases: functional
OVCAR-8 = assay: Cytotoxicity against Homo sapiens (human) OVCAR8 cells at 10^-4 to 10^-8 M after 48 hr by SRB assay; settings: OVCAR-8, 48 h, read-out: pTGI (converted)
SF-539 [1] = assay: Cytotoxicity against Homo sapiens (human) SF539 cells at 10^-4 to 10^-8 M after 48 hr by SRB assay; settings: SF-539, 48 h, read-out: pTGI (converted)
SK-OV-3 [2] = assay: Cytotoxicity against Homo sapiens (human) SKOV3 cells at 10^-4 to 10^-8 M after 48 hr by SRB assay; settings: SK-OV-3, 48 h, read-out: pTGI (converted)
SK-OV-3 [3] = assay: Cytotoxicity against Homo sapiens (human) SKOV3 cells after 48 hr by SRB assay
OVCAR-4 = assay: Cytotoxicity against Homo sapiens (human) OVCAR4 cells at 10^-4 to 10^-8 M after 48 hr by SRB assay; settings: OVCAR-4, 48 h, read-out: pTGI (converted)
EKVX = assay: Cytotoxicity against Homo sapiens (human) EKVX cells after 48 hr by SRB assay
PC-3 = assay: Cytotoxicity against Homo sapiens (human) PC3 cells at 10^-4 to 10^-8 M after 48 hr by SRB assay; settings: PC-3, 48 h, read-out: pTGI (converted)
A549 = assay: Cytotoxicity against Homo sapiens (human) A549 cells at 10^-4 to 10^-8 M after 48 hr by SRB assay; settings: A549, 48 h, read-out: pTGI (converted)
SK-MEL-5 = assay: Cytotoxicity against Homo sapiens (human) SK-MEL-5 cells at 10^-4 to 10^-8 M after 48 hr by SRB assay; settings: SK-MEL-5, 48 h, read-out: pTGI (converted)
CCRF-CEM [4] = assay: Cytotoxicity against Homo sapiens (human) CCRF-CEM cells at 10^-4 to 10^-8 M after 48 hr by SRB assay; settings: read-out: pTGI (converted)
CCRF-CEM [5] = assay: Cytotoxicity against Homo sapiens (human) CCRF-CEM cells after 48 hr by SRB assay
786-0 = assay: Cytotoxicity against Homo sapiens (human) 786-0 cells at 10^-4 to 10^-8 M after 48 hr by SRB assay; settings: 786-0, 48 h, read-out: pTGI (converted)
SNB-75 = assay: Cytotoxicity against Homo sapiens (human) SNB75 cells at 10^-4 to 10^-8 M after 48 hr by SRB assay; settings: SNB-75, 48 h, read-out: pTGI (converted)
DU-145 = assay: Cytotoxicity against Homo sapiens (human) DU145 cells at 10^-4 to 10^-8 M after 48 hr by SRB assay; settings: DU-145, 48 h, read-out: pTGI (converted)
UACC-62 = assay: Cytotoxicity against Homo sapiens (human) UACC62 cells at 10^-4 to 10^-8 M after 48 hr by SRB assay; settings: UACC-62, 48 h, read-out: pTGI (converted)
SW-620 = assay: Cytotoxicity against Homo sapiens (human) SW620 cells after 48 hr by SRB assay
NCI-H322M [6] = assay: Cytotoxicity against Homo sapiens (human) NCI-H322M cells at 10^-4 to 10^-8 M after 48 hr by SRB assay; settings: read-out: pTGI (converted)
NCI-H322M [7] = assay: Cytotoxicity against Homo sapiens (human) NCI-H322M cells after 48 hr by SRB assay
KM12 = assay: Cytotoxicity against Homo sapiens (human) KM12 cells at 10^-4 to 10^-8 M after 48 hr by SRB assay; settings: KM12, 48 h, read-out: pTGI (converted)
LOX IMVI = assay: Cytotoxicity against Homo sapiens (human) LOXIMVI cells at 10^-4 to 10^-8 M after 48 hr by SRB assay; settings: read-out: pTGI (converted)
HOP-62 = assay: Cytotoxicity against Homo sapiens (human) HOP62 cells at 10^-4 to 10^-8 M after 48 hr by SRB assay; settings: HOP-62, 48 h, read-out: pTGI (converted)
SK-MEL-2 = assay: Cytotoxicity against Homo sapiens (human) SK-MEL-2 cells at 10^-4 to 10^-8 M after 48 hr by SRB assay; settings: SK-MEL-2, 48 h, read-out: pTGI (converted)
UO-31 = assay: Cytotoxicity against Homo sapiens (human) UO31 cells at 10^-4 to 10^-8 M after 48 hr by SRB assay; settings: UO-31, 48 h, read-out: pTGI (converted)
OVCAR-3 = assay: Cytotoxicity against Homo sapiens (human) OVCAR3 cells at 10^-4 to 10^-8 M after 48 hr by SRB assay; settings: OVCAR-3, 48 h, read-out: pTGI (converted)
T47D = assay: Cytotoxicity against Homo sapiens (human) T47D cells at 10^-4 to 10^-8 M after 48 hr by SRB assay; settings: read-out: pTGI (converted)
TK-10 = assay: Cytotoxicity against Homo sapiens (human) TK10 cells at 10^-4 to 10^-8 M after 48 hr by SRB assay; settings: TK-10, 48 h, read-out: pTGI (converted)
HCT-116 = assay: Cytotoxicity against Homo sapiens (human) HCT116 cells at 10^-4 to 10^-8 M after 48 hr by SRB assay; settings: HCT-116, 48 h, read-out: pTGI (converted)
SNB-19 = assay: Cytotoxicity against Homo sapiens (human) SNB19 cells after 48 hr by SRB assay
[8] = Cytotoxicity against Homo sapiens (human) NCI-ADR-RES cells at 10^-4 to 10^-8 M after 48 hr by SRB assay; settings: read-out: pTGI (converted)
SR = assay: Cytotoxicity against Homo sapiens (human) SR cells assessed as cellular growth at 10^-5 M after 48 hr by SRB assay relative to untreated control
MDA-MB-231 = assay: Cytotoxicity against Homo sapiens (human) MDA-MB-231 cells at 10^-4 to 10^-8 M after 48 hr by SRB assay; settings: MDA-MB-231, 48 h, read-out: pTGI (converted)
HT-29 = assay: Cytotoxicity against Homo sapiens (human) HT-29 cells at 10^-4 to 10^-8 M after 48 hr by SRB assay; settings: HT-29, 48 h, read-out: pTGI (converted)
ACHN = assay: Cytotoxicity against Homo sapiens (human) ACHN cells after 48 hr by SRB assay
MOLT-4 = assay: Cytotoxicity against Homo sapiens (human) MOLT4 cells at 10^-4 to 10^-8 M after 48 hr by SRB assay; settings: MOLT-4, 48 h, read-out: pTGI (converted)
SF-539 [9] = assay: Cytotoxicity against Homo sapiens (human) SF539 cells after 48 hr by SRB assay
NCI-H226 = assay: Cytotoxicity against Homo sapiens (human) NCI-H226 cells at 10^-4 to 10^-8 M after 48 hr by SRB assay; settings: NCI-H226, 48 h, read-out: pTGI (converted)

Compound: COC(=O)[C@]12CCC(C)(C)C[C@H]1C1=CC[C@@H]3[C@@]4(C)CC/C(=N\O)C(C)(C)[C@@H]4CC[C@@]3(C)[C@]1(C)CC2
- TGI (OVCAR-8): > 100 µM
- TGI (SF-539 [1]): 41.7 µM
- TGI (SK-OV-3 [2]): > 100 µM
- GI50 (SK-OV-3 [3]; Homo sapiens, SK-OV-3, 48 h): 40.7 µM
- TGI (OVCAR-4): > 100 µM
- GI50 (EKVX; Homo sapiens, EKVX, 48 h): 28.2 µM
- TGI (PC-3): 44.7 µM
- TGI (A549): > 100 µM
- TGI (SK-MEL-5): 63.1 µM
- TGI (CCRF-CEM [4]): 81.3 µM
- GI50 (CCRF-CEM [5]): 28.2 µM
- TGI (786-0): 34.7 µM
- TGI (SNB-75): 38.9 µM
- TGI (DU-145): 42.7 µM
- TGI (UACC-62): 56.2 µM
- GI50 (SW-620; Homo sapiens, SW-620, 48 h): 20 µM
- TGI (NCI-H322M [6]): > 100 µM
- GI50 (NCI-H322M [7]; Homo sapiens, NCI-H322M, 48 h): 72.4 µM
- TGI (KM12): > 100 µM
- TGI (LOX IMVI): 39.8 µM
- TGI (HOP-62): 44.7 µM
- TGI (SK-MEL-2): > 100 µM
- TGI (UO-31): 45.7 µM
- TGI (OVCAR-3): 35.5 µM
- TGI (T47D): 72.4 µM
- TGI (TK-10): 97.7 µM
- TGI (HCT-116): 56.2 µM
- GI50 (SNB-19; Homo sapiens, SNB-19, 48 h): 25.7 µM
- TGI [8]: > 100 µM
- Activity (SR): -41.06%
- TGI (MDA-MB-231): 40.7 µM
- TGI (HT-29): 79.4 µM
- GI50 (ACHN; Homo sapiens, ACHN, 48 h): 20.9 µM
- TGI (MOLT-4): > 100 µM
- GI50 (SF-539 [9]; Homo sapiens, SF-539, 48 h): 20.9 µM
- TGI (NCI-H226): 66.1 µM

Compound: CC1(C)CC[C@@]23CC[C@]4(C)[C@@](OC2=O)([C@@H]3C1)[C@@H](Br)C[C@@H]1[C@@]2(C)CC/C(=N\O)C(C)(C)[C@@H]2CC[C@]14C
- TGI (OVCAR-8): 53.7 µM
- TGI (SF-539 [1]): > 100 µM
- TGI (SK-OV-3 [2]): > 100 µM
- GI50 (SK-OV-3 [3]; Homo sapiens, SK-OV-3, 48 h): 30.9 µM
- TGI (OVCAR-4): > 100 µM
- GI50 (EKVX; Homo sapiens, EKVX, 48 h): 91.2 µM
- TGI (PC-3): > 100 µM
- TGI (A549): > 100 µM
- TGI (SK-MEL-5): > 100 µM
- TGI (CCRF-CEM [4]): > 100 µM
- GI50 (CCRF-CEM [5]): 17.4 µM
- TGI (786-0): > 100 µM
- TGI (SNB-75): 60.3 µM
- TGI (DU-145): > 100 µM
- TGI (UACC-62): > 100 µM
- GI50 (SW-620; Homo sapiens, SW-620, 48 h): 6.76 µM
- TGI (NCI-H322M [6]): > 100 µM
- GI50 (NCI-H322M [7]; Homo sapiens, NCI-H322M, 48 h): 20 µM
- TGI (KM12): > 100 µM
- TGI (LOX IMVI): > 100 µM
- TGI (HOP-62): > 100 µM
- TGI (SK-MEL-2): > 100 µM
- TGI (UO-31): > 100 µM
- TGI (OVCAR-3): 49 µM
- TGI (T47D): 74.1 µM
- TGI (TK-10): 52.5 µM
- TGI (HCT-116): > 100 µM
- GI50 (SNB-19; Homo sapiens, SNB-19, 48 h): 53.7 µM
- TGI [8]: > 100 µM
- Activity (SR): -62.66%
- TGI (MDA-MB-231): 47.9 µM
- TGI (HT-29): > 100 µM
- GI50 (ACHN; Homo sapiens, ACHN, 48 h): 53.7 µM
- TGI (MOLT-4): > 100 µM
- GI50 (SF-539 [9]; Homo sapiens, SF-539, 48 h): 20 µM
- TGI (NCI-H226): > 100 µM

Compound: COC(=O)[C@]12CCC(C)(C)C[C@H]1C1=CC[C@@H]3[C@@]4(C)CC/C(=N\OC(=O)/C=C5/SC(=O)NC5=O)C(C)(C)[C@@H]4CC[C@@]3(C)[C@]1(C)CC2
- TGI (OVCAR-8): 15.1 µM
- TGI (SF-539 [1]): 3.63 µM
- TGI (SK-OV-3 [2]): 34.7 µM
- GI50 (SK-OV-3 [3]): 61.7 µM and 20 µM
- TGI (OVCAR-4): 6.92 µM
- GI50 (EKVX): 56.2 µM and 6.76 µM
- TGI (PC-3): 14.1 µM
- TGI (A549): 17.8 µM
- TGI (SK-MEL-5): 17.8 µM
- TGI (CCRF-CEM [4]): 7.76 µM
- GI50 (CCRF-CEM [5]): 2.45 µM
- LC50 (CCRF-CEM [5]): 37.2 µM
- TGI (786-0): 11.5 µM
- TGI (SNB-75): 22.9 µM
- TGI (DU-145): 17 µM
- TGI (UACC-62): 10.2 µM
- GI50 (SW-620): 7.59 µM and 2 µM
- TGI (NCI-H322M [6]): 32.4 µM
- GI50 (NCI-H322M [7]): 58.9 µM and 18.2 µM
- TGI (KM12): 12.6 µM
- TGI (LOX IMVI): 3.09 µM
- TGI (HOP-62): 36.3 µM
- TGI (SK-MEL-2): 17.8 µM
- TGI (UO-31): 2.95 µM
- TGI (OVCAR-3): 3.47 µM
- TGI (T47D): 18.6 µM
- TGI (TK-10): 8.13 µM
- TGI (HCT-116): 3.39 µM
- GI50 (SNB-19): 56.2 µM and 12.3 µM
- TGI [8]: 22.9 µM
- Activity (SR): -22.69%
- TGI (MDA-MB-231): 7.59 µM
- TGI (HT-29): 5.13 µM
- GI50 (ACHN): 1.74 µM and 6.61 µM
- TGI (MOLT-4): 7.41 µM
- GI50 (SF-539 [9]): 7.59 µM and 1.78 µM
- TGI (NCI-H226): 30.9 µM
